Results as given in PubChem BioAssay AID200 (DTP/NCI, 2004).
Values joined by “and” are separate entries in the source; they are usually repeats but may differ in a detail not shown here. Identical values can stand only once. Toxic doses and inconclusive results are not listed. Rule for the calls: active = survival T/C of 150% or more; inactive = T/C below 125% in these data. Where a SMILES comes first, the peptide text is derived from it.

System: B6C3F1 mice, B16 melanoma ip, median survival T/C
Experiment: NCI In Vivo Anticancer Drug Screen. Data for tumor model B16 Melanoma (intraperitoneal) in B6C3F1 mice
Settings: endpoint: median survival time, schedule: Q01DX009 (ip), higher = longer survival
In short: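 Mice bearing transplanted tumor were dosed with compound or vehicle, and survival was recorded. Activity is expressed as the treated-group measurement (T) divided by the vehicle control measurement (C).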

[1] = dose: 25.0 mg/kg/injection, vehicle: saline with Tween-80
[2] = dose: 50.0 mg/kg/injection, vehicle: saline with Tween-80
[3] = dose: 100.0 mg/kg/injection, vehicle: saline with Tween-80
[4] = dose: 200.0 mg/kg/injection, vehicle: saline with Tween-80
[5] = dose: 400.0 mg/kg/injection, vehicle: saline with Tween-80
[6] = dose: 12.5 mg/kg/injection, vehicle: saline with Tween-80

Measured: T/C

NC(=O)C#CC(N)=O
inactive: dose: 0.06 mg/kg/injection, vehicle: Klucel (hydroxypropylcellulose) (HPC) 101 % of control | dose: 0.12 mg/kg/injection, vehicle: Klucel (hydroxypropylcellulose) (HPC) 102 % of control | dose: 0.23 mg/kg/injection, vehicle: Klucel (hydroxypropylcellulose) (HPC) 97 % of control | dose: 0.45 mg/kg/injection, vehicle: Klucel (hydroxypropylcellulose) (HPC) 100 % of control | dose: 0.9 mg/kg/injection, vehicle: Klucel (hydroxypropylcellulose) (HPC) 102 % of control

NC(N)=NCCCC(N)C(=O)NCC(=O)NCC(=O)O (centres undefined) (HELM PEPTIDE1{[N=C(N)NCCCC(N)C(=O)[*:2]].G.G}$$$$V2.0)
inactive: dose: 100.0 mg/kg/injection, vehicle: saline 107 % of control | dose: 200.0 mg/kg/injection, vehicle: saline 102 % of control | dose: 400.0 mg/kg/injection, vehicle: saline 111 % of control

CN=C(N)N/N=C(\C)c1ccc2sc3ccc(/C(C)=N/NC(N)=NC)cc3c2c1
inactive: [1] 108 % of control | [2] 113 % of control | [3] 120 % of control | [4] 119 % of control | [5] 95 % of control

COc1cc2c(cc1O)N=C[C@@H]1CCC(O)N1C2=O (mixture of isomers)
inactive: dose: 0.5 mg/kg/injection, vehicle: saline 100 % of control | dose: 1.0 mg/kg/injection, vehicle: saline 100 % of control and 107 % of control | dose: 2.0 mg/kg/injection, vehicle: saline 111 % of control and 106 % of control | dose: 4.0 mg/kg/injection, vehicle: saline 110 % of control and 121 % of control | dose: 8.0 mg/kg/injection, vehicle: saline 115 % of control

COc1cc([NH-])c([NH-])cc1OC.[Cl][Pt+2][Cl]
inactive: dose: 20.0 mg/kg/injection, vehicle: saline with Tween-80 100 % of control | dose: 40.0 mg/kg/injection, vehicle: saline with Tween-80 101 % of control | dose: 80.0 mg/kg/injection, vehicle: saline with Tween-80 112 % of control

O=C1OCC2(C(=O)O)C(=O)OCC12 (centres undefined)
inactive: [6] 105 % of control | [1] 100 % of control | [2] 101 % of control | [3] 104 % of control | [4] 90 % of control

Cc1ncc([N+](=O)[O-])n1CCO
inactive: dose: 37.5 mg/kg/injection, vehicle: Klucel (hydroxypropylcellulose) (HPC) 103 % of control | dose: 75.0 mg/kg/injection, vehicle: Klucel (hydroxypropylcellulose) (HPC) 100 % of control | dose: 150.0 mg/kg/injection, vehicle: Klucel (hydroxypropylcellulose) (HPC) 101 % of control | dose: 300.0 mg/kg/injection, vehicle: Klucel (hydroxypropylcellulose) (HPC) 92 % of control | dose: 600.0 mg/kg/injection, vehicle: Klucel (hydroxypropylcellulose) (HPC) 100 % of control

Nc1nc2nc[nH]c2c(=O)[nH]1
inactive: dose: 6.25 mg/kg/injection, vehicle: saline with Tween-80 116 % of control | [6] 105 % of control | [1] 104 % of control | [2] 102 % of control | [3] 90 % of control

CC(C)OC(CCCl)c1ccccc1 (centres undefined)
inactive: [3] 94 % of control | [4] 87 % of control | [5] 100 % of control
